From patent US20190210969A1, “INTRAESOPHAGEAL ADMINISTRATION OF TARGETED NITROXIDE AGENTS FOR PROTECTION AGAINST IONIZING IRRADIATION-INDUCED ESOPHAGITIS” (University of Pittsburgh - Of the Commonwealth System of …, priority 2010, published 2019)

Tests used:
Assay type in all cases: in vivo, mouse
[1] = tested on: mice exposed to total body irradiation; experiment: Survival of mice after total body irradiation; settings: for protection from death: vs TEMPO or F14 alone, preliminary data
Procedure: In FIG. 4A, mice received intraperitoneal injection of 10 mg per kilogram of each of the chemicals indicated, then 24 hours later received 9.75 Gy total body irradiation according to published methods. Mice were followed for survival according to IACUC regulations. […] (P=0.0008). In FIG. 4B, mice received intraperitoneal injection of JP4-039 either 10 minutes before (square symbols) or 4 hours after (triangle symbols) irradiation with 9.75 Gy.
Groups of 15 mice received intraperitoneal injection of 10 mg. per kilogram of each indicated GS-nitroxide compound or carrier (Cremphora plus alcohol at 1 to 1 ratio, then diluted 1 to 10 in distilled water). Mice received 10 mg per kilogram intra-peritoneal injection 24 hours prior to total body irradiation. Control mice received radiation alone. […] (P=0.0005) FIG. 6 is a graph showing that GS-nitroxide JP4-039 is an effective hematopoietic cell radiation mitigator when delivered 24 hr after irradiation. Irradiation survival curves were performed on cells from the 32D cl 3 mouse hematopoietic progenitor cell line, incubated in 10 μM JP4-039 for 1 hour before irradiation, or plated in methylcellulose containing 10 μM […] after irradiation. Cells were irradiated from 0 to 8 Gy, plated in 0.8% methylcellulose containing media, and incubated for 7 days at 37° C. Colonies of greater than 50 cells were counted and data analyzed by linear quadratic and single-hit, multi-target models.
The above methods are based on preliminary data showing that JP4-039 administered via i.p. injection at 10 mg/kg 10 minutes before either […] [FIG. 21A] or 9.15 Gy [FIG. 21B] total-body irradiation protected C57BL/6NHsd female mice from esophagitis-induced death compared to those that received either TEMPO or F14 alone (p=0.0301 and p=0.010, respectively).

[2] = tested on: mice, 29 Gy upper body irradiation plus GFP+ male marrow; experiment: Survival after 29 Gy upper body irradiation with GFP+ marrow injection on day 5; settings: given before 29 Gy; GFP+ marrow i.v. day 5; p=0.0315 (MnSOD-PL), p=0.0462 (JP4-039/F15)
From the text: (§1) Bone marrow transplantation, esophageal excision and cell sorting. Five days after irradiation, the time shown to optimize marrow cell homing to the irradiated esophagus, mice received intravenous injection of 1.0×10^7 C57BL/6HNsd GFP+ male bone marrow cells prepared as single-cell suspension from donor male mice according to published methods (Niu Y, et al. Irradiated esophageal cells are protected from radiation-induced recombination by MnSOD gene therapy. Rad Res 173: 453-461, 2010 and Niu Y, et al. Intraesophageal MnSOD-plasmid liposome administration enhances engraftment and self-renewal capacity of bone marrow derived progenitors of esophageal squamous epithelium. Gene Therapy 15: 347-356, 2008). At serial time points after marrow transplantation, esophagus specimens were removed, and single cell suspensions prepared according to published methods (Id.). The esophagus cell suspensions were sorted for GFP+ cells. The number of GFP+ cells per 10^6 was calculated as described previously (Id.). (GFP+) cells were placed on slides, and stained for detection of donor cell markers (Id.).
Intraesophageal JP4-039/formulation improves survival through recovery of endogenous esophageal progenitor cells. […] Five groups of 15 mice each received 29 Gy to the upper body. One group received MnSOD-PL 24 hours prior to irradiation.

[3] = tested on: GFP+ cells in the esophagus; experiment: GFP+ marrow-derived cells in the irradiated esophagus (cell sorting)
From the text: FIGS. 18A-F. Detection of GFP+ marrow-derived cells in the irradiated mouse esophagus after intravenous transplant. Mice were irradiated to 29 Gy to the esophagus on day 0, and then injected with 1×10^7 GFP+ marrow cells intravenously on day 5 according to published methods (Epperly M W, et al. Int J Cancer (Radiat Oncol Invest) 96: 221-233, 2001; Epperly M W, et al. In Vivo 19: 997-1004, 2005; and Epperly M W, et al. Protection of esophageal stem cells from ionizing irradiation by MnSOD-plasmid liposome gene therapy. In Vivo 19: 965-974, 2005). Five esophagus samples were removed from each animal in the various subgroups on days 1 (FIG. 18A), 3 (FIG. 18B), 7 (FIG. 18C), 14 (FIG. 18D), 28 (FIG. 18E) and 60 (FIG. 18F) after marrow injection. Samples of excised esophagi were prepared as single cell suspensions and then analyzed by cell […] for GFP+ cells/106 esophagus cells. Each symbol represents one esophagus.
as §1
Statistics. In vitro data analysis and estimation of survival of mice were performed using published statistical methods (Epperly M W, et al. Radiat Res 155: 2-14, 2001). The Kruskal-Wallis test and post-hoc Mann-Whitney test were used to evaluate donor marrow cells in the esophagus as described (Niu Y, et al. Rad Res 173: 453-461, 2010). A SAS statistical program was used to perform the statistical analysis (SAS Institute, Cary, N.C., USA).

[4] = Uptake of swallowed JP4-039 in esophageal SP cells incl. GFP+ marrow chimeric mice

## CC(C)C[C@@H](/C=C/CC(=O)NC1CC(C)(C)N([O])C(C)(C)C1)NC(=O)OC(C)(C)C [JP4-039, TEMPO-4-yl-(S,E)-5-(tert-butoxycarbonylamino)-7-methyloct-3-enamide]
[1]; 10 mg/kg i.p. 10 minutes before 9/5 Gy total-body irradiation, p=0.0301
  protection from death: protected
[1]; 10 mg/kg i.p. 10 minutes before 9.15 Gy total-body irradiation, p=0.010
  protection from death: protected
[1]; 10 mg/kg i.p. 24 hours before 9.75 Gy total body irradiation, vs irradiated control, P=0.0008
  survival of mice: significant increase in survival
[1]; 10 mg/kg i.p. 24 hours prior to 9.5 Gy total body irradiation, P=0.0005
  survival of mice: increases survival
[2]
  survival: improved survival
[3]; 29 Gy + JP4-039 (after irradiation), day 1
  number of GFP+ cells per 10^6 cells in the esophagus, median (inter-quartile range): 0.5 (0-1.6) per 10^6 cells
[3]; 29 Gy + JP4-039 (after irradiation), day 3
  number of GFP+ cells per 10^6 cells in the esophagus, median (inter-quartile range): 1.5 (0.5-1.7) per 10^6 cells
[3]; 29 Gy + JP4-039 (after irradiation), day 7
  number of GFP+ cells per 10^6 cells in the esophagus, median (inter-quartile range): 0 (0-0.3) per 10^6 cells
[3]; 29 Gy + JP4-039 (after irradiation), day 28
  number of GFP+ cells per 10^6 cells in the esophagus, median (inter-quartile range): 0.85 (0-4.15) per 10^6 cells
[3]; JP4-039 + 29 Gy (before irradiation), day 1
  number of GFP+ cells per 10^6 cells in the esophagus, median (inter-quartile range): 0.9 (0.3-2.6) per 10^6 cells
[3]; JP4-039 + 29 Gy (before irradiation), day 3
  number of GFP+ cells per 10^6 cells in the esophagus, median (inter-quartile range): 0.3 (0-3.1) per 10^6 cells
[3]; JP4-039 + 29 Gy (before irradiation), day 7
  number of GFP+ cells per 10^6 cells in the esophagus, median (inter-quartile range): 0.28 (0.13-0.65) per 10^6 cells
[3]; JP4-039 + 29 Gy (before irradiation), day 28
  number of GFP+ cells per 10^6 cells in the esophagus, median (inter-quartile range): 0 (0-0) per 10^6 cells
[3]; JP4-039 + 29 Gy (before irradiation), day 60
  number of GFP+ cells per 10^6 cells in the esophagus, median (inter-quartile range): 0 (0-0) per 10^6 cells
[4]; GFP+ marrow chimeric mice
  uptake in GFP+ esophageal (SP) stem cells: reaches GFP+ esophageal (SP) stem cells
[4]; preliminary data
  uptake in esophageal SP cells: reaches SP cells
